Converted amounts (≈) assume the structure as drawn.

Data on 21 compounds can be found in patent US3939270A, “Pharmaceutical preparations containing α-aminopenicillins” (priority 1970, dated 1976).

A short description of series [1]: hydrolysis of esters in phosphate buffer. It is filed as in vitro ADME. The following applies: pH 7.4, 10 μg/ml, 30 min, 37°C, corrected for blank, read-out: % hydrolyzed after 30 min at 37°C, phosphate buffer. As to the method: (§1) The hydrolysis of the esters of the aminopenicillins prepared according to the invention were determined in buffer solution with and without human serum being present. The esters were incubated for 30 min at 37°C at a concentration of 10 μg/ml in Sorensen's phosphate buffer (pH 7.4) and in another experiment in the same buffer containing 10 % human serum. The test solutions were extracted with ethyl acetate to remove unhydrolyzed ester and were analyzed microbiologically for their contents of aminopenicillin. Blank values were obtained by dissolving the esters in phosphate buffer at the same concentration and immediately perform the extraction. The values in the table are corrected for the blank values.

Series [2] can be described thus: hydrolysis of esters in phosphate buffer + 10% human serum. In kind it is in vitro ADME. The following applies: buffer with 10% serum; pH 7.4, 10% human serum, 10 μg/ml, 30 min, 37°C, corrected for blank; read-out: % hydrolyzed after 30 min at 37°C, phosphate buffer + 10% human serum. The method, then: as §1
For series [3] the following is noted: background statement on α-aminobenzylpenicillin; cited from earlier work.
A further series has as its system P.mirabilis. In words: antibacterial activity, tube dilution procedure in broth, P. mirabilis. In kind it is cell-based. The following applies: Proteus mirabilis. An excerpt:
(§2) (termination of concentration according to the hydroxamate method; antibacterial activity determined by tube dilution procedure in broth).

Series [4] has as its system E.coli. Description: antibacterial activity, tube dilution procedure in broth, E. coli. The following applies: Escherichia coli. In kind it is cell-based.
Text: as §2

The next series relates to Staph.aur. Oxford. Description: antibacterial activity, tube dilution procedure in broth, Staph. aureus Oxford. The following applies: Staphylococcus aureus. In kind it is cell-based.
Text: as §2

Series [5] concerns Staph. aureus Oxford. In words: growth inhibition of Staph. aureus Oxford (Examples). In kind it is cell-based. The following applies: for MIC: Staphylococcus aureus, read-out: inhibited the growth of Staph. aureus Oxford at a concentration of.
In another series the test system is E. coli. Description: growth inhibition of E. coli (Example 7a). In kind it is cell-based. The following applies: Escherichia coli; read-out: inhibited the growth of E. coli at.
The subject of another series is P. mirabilis. In words: growth inhibition of P. mirabilis (Example 7a). The following applies: Proteus mirabilis; read-out: inhibited the growth of P. mirabilis at. In kind it is cell-based.
The conditions of series [6]: human, in vivo, po, 480 min. As to the method: The oral absorption of 1'-ethoxycarbonyloxyethyl 6-(D-α-aminophenylacetamino)penicillanate (I) and of 1'-acetoxyethyl6-(D-α-aminophenylacetamido)penicillanate (II) was studied in a cross-over experiment in 9 healthy male volunteers using 6-(D-α-aminophenylacetamido)penicillanic acid (ampicillin) as a reference. The compounds were administered in tablets with the following composition:
The amounts of the esters correspond to 250 mg of free ampicillin. The reference compound was given in a commercially available tablet (Doktacillin 0.25 g) containing 250 mg of free ampicillin. The tablets were taken on an empty stomach. Blood samples were drawn at preset intervals and analyzed for their contents of ampicillin using a microbiological essay. The following mean serum levels (in μg/ml) with standard error of the mean were found:
The mean cumulative urinary excretions after 8 hours in percentage of the dose given were: […]

For series [7], the system named is Staph. aureus Oxford. In words: growth inhibition of Staph. aureus Oxford, solution test on agar. In kind it is cell-based. The following applies: Staphylococcus aureus, read-out: inhibited the growth of Staph. Aureus Oxford at a concentration of. As to the method:
(§3) The product inhibited the growth of Staph. Aureus Oxford at a concentration of 0.13 μg/ml and of E.coliat 125 μg/ml (solution test on agar) and contained in its IR-spectrum a strong absorption band at 1750 cm^-^1 showing presence of a β-lactame and an ester function.

In series [8] the test system is E.coli. In words: growth inhibition of E. coli, solution test on agar. The following applies: Escherichia coli, read-out: inhibited the growth of E.coli at. It is filed as cell-based. As to the method: as §3

For `CCCCC(=O)OC(C)OC(=O)[C@@H]1N2C(=O)[C@@H](NC(=O)[C@H](N)c3ccccc3)[C@H]2SC1(C)C` (stereo partly drawn) [10 --CH--OCOC4 H9, 1'-valeryloxy-ethyl 6-(D-α-aminophenylacetamido)penicillanate], the degraded at 0.5 h in series [1] came to 4.9%. Further, the metabolised at 0.5 h in series [2] turned out to be 14.3%.
The like results for `CC(OC(=O)C(C)C)OC(=O)[C@@H]1N2C(=O)[C@@H](NC(=O)[C@H](N)c3ccccc3)[C@H]2SC1(C)C` (stereo partly drawn) [10 --CH--OCOCH(CH3)2, 1'-isobutyroxy-ethyl 6-(D-α-aminophenylacetamido)penicillanate] were, in that order, 5.2% and 12.1%.
For the compound `CC1(C)S[C@@H]2[C@H](NC(=O)[C@H](N)c3ccccc3)C(=O)N2[C@H]1C(=O)O` [Ampicillin, 6-(D-α-aminophenylacetamido)penicillanic acid], the oral absorption entry in series [3] was “orally absorbed relatively incompletely”.
Turning to `CCOC(=O)NCOC(=O)[C@@H]1N2C(=O)[C@@H](NC(=O)[C@H](N)c3ccccc3)[C@H]2SC1(C)C` [Ethylcarbamatomethylester, ethoxycarbonylaminomethyl 6-(D-α-aminophenylacetamido)penicillanate], the MIC in the series with P.mirabilis is 6.25 µg/mL (≈ 13.9 µM); in the series with E.coli [4], 12.5 µg/mL (≈ 27.7 µM); in the series on Staph.aur. Oxford it was 0.16 µg/mL (≈ 0.355 µM). The degraded at 0.5 h in [1] stood at 7.1%. Also, the metabolised at 0.5 h in series [2] stood at 15.2%.
`CC(=O)OC(C)OC(=O)[C@@H]1N2C(=O)[C@@H](NC(=O)C(N)CCC(C)C)[C@H]2SC1(C)C` (stereo partly drawn) [Example 5, 1'-Acetoxyethyl α-amino-δ-methylpentylpenicillinate]: the degraded at 0.5 h in series [1] was 6%. Also, the metabolised at 0.5 h in series [2] is 15.3%. Moreover, the MIC in the series with Staph. aureus Oxford [5] is 0.63 µg/mL (≈ 1.47 µM).
For the compound `CC(=O)OC(C)OC(=O)[C@@H]1N2C(=O)[C@@H](NC(=O)[C@H](N)c3ccccc3)[C@H]2SC1(C)C` (stereo partly drawn) [Example 7, 1'-Acetoxyethyl 6-(D-α-aminophenylacetamido)penicillanate], the MIC in the series with E. coli stood at 50 µg/mL (≈ 115 µM); with P. mirabilis it was 50 µg/mL (≈ 115 µM); in the series with Staph. aureus Oxford [5] it was 0.32 µg/mL (≈ 0.735 µM). In addition, the “mean cumulative urinary excretion after 8 hours in percentage of the dose given” value in series [6] is listed as 53.7 ± 4.9%. Besides, the degraded at 0.5 h in series [1] stood at 7%. Moreover, the metabolised at 0.5 h in series [2] was determined as 17%. Besides, the “inhibited the growth of Staph. aureus Oxford at a concentration of” value with Staph. aureus Oxford [5] (listed as Example 7b) came to 0.25 µg/mL.
Regarding `CCC(=O)OC(C)OC(=O)[C@@H]1N2C(=O)[C@@H](NC(=O)[C@H](N)c3ccccc3)[C@H]2SC1(C)C` (stereo partly drawn) [Example 9, 1'-Propionyloxyethyl 6-(D-α-aminophenylacetamido) penicillanate], the degraded at 0.5 h in [1] amounted to 6.8%. In addition, the metabolised at 0.5 h in series [2] is 17.6%. Also, in the series on Staph. aureus Oxford [5], the MIC is 0.63 µg/mL (≈ 1.4 µM).
Turning to `COC(=O)OCOC(=O)[C@@H]1N2C(=O)[C@@H](NC(=O)[C@H](N)c3ccccc3)[C@H]2SC1(C)C` [Example 12, Methoxycarbonyloxymethyl 6-(D-α-aminophenylacetamido) penicillanate], the MIC against P.mirabilis worked out at 6.25 µg/mL (≈ 14.3 µM); in the series with E.coli [4], 25 µg/mL (≈ 57.1 µM); with Staph.aur. Oxford, 0.16 µg/mL (≈ 0.366 µM); with Staph. aureus Oxford [5], 0.13 µg/mL (≈ 0.297 µM). In series [1], the degraded at 0.5 h was found to be 24.8%. The metabolised at 0.5 h in [2] came to 77.9%.
Take `CCOC(=O)OC(C)OC(=O)[C@@H]1N2C(=O)[C@@H](NC(=O)[C@H](N)c3ccccc3)[C@H]2SC1(C)C` (stereo partly drawn) [Example 15, 1'-Ethoxycarbonyloxyethyl 6-(D-α-aminophenylacetamido) penicillanate]: in [6], the “mean cumulative urinary excretion after 8 hours in percentage of the dose given” value was determined as 53.4 ± 2.5%. Further, the MIC with Staph. aureus Oxford [7] amounted to 0.13 µg/mL (≈ 0.279 µM); in the series on E.coli [8], 125 µg/mL (≈ 269 µM); in the series with Staph. aureus Oxford [5], 0.13 µg/mL (≈ 0.279 µM). Further, in series [1], the degraded at 0.5 h was 3.8%. Moreover, the metabolised at 0.5 h in [2] was determined as 57.1%.
As to `CCOC(=O)OCOC(=O)[C@@H]1N2C(=O)[C@@H](NC(=O)[C@H](N)c3ccccc3)[C@H]2SC1(C)C` [Example 17, Ethoxycarbonyloxymethyl 6-(D-α-aminophenylacetamido) penicillanate], the degraded at 0.5 h in [1] turned out to be 13.3%. In series [2], the metabolised at 0.5 h is 64.7%. The MIC in the series on Staph. aureus Oxford [5] was found to be 0.05 µg/mL (≈ 0.111 µM).
The like results for `CCCOC(=O)OCOC(=O)[C@@H]1N2C(=O)[C@@H](NC(=O)[C@H](N)c3ccccc3)[C@H]2SC1(C)C` [Example 18, Propoxycarbonyloxymethyl 6-(D-α-aminophenylacetamido) penicillanate] were, in that order, 14.5%, 53.7% and 0.05 µg/mL (≈ 0.107 µM).
The matching figures for `CC(C)OC(=O)OCOC(=O)[C@@H]1N2C(=O)[C@@H](NC(=O)[C@H](N)c3ccccc3)[C@H]2SC1(C)C` [Example 19, Isopropoxycarbonyloxymethyl 6-(D-α-aminophenylacetamido)penicillanate]: 15.2%, 68.4% and 0.05 µg/mL (≈ 0.107 µM).
The like results for `CCCCOC(=O)OCOC(=O)[C@@H]1N2C(=O)[C@@H](NC(=O)[C@H](N)c3ccccc3)[C@H]2SC1(C)C` [Example 20, Butoxycarbonyloxymethyl 6-(D-α-aminophenylacetamido) penicillanate] were, in that order, 13%, 41.1% and 0.05 µg/mL (≈ 0.104 µM).
Regarding `CC(=O)OC(C)OC(=O)[C@@H]1N2C(=O)[C@@H](NC(=O)[C@H](N)c3cccc(F)c3)[C@H]2SC1(C)C` (stereo partly drawn) [Example 22, 1'-acetoxy-ethyl 6-(D-α-amino-m-fluorophenylacetamido) penicillanate], the degraded at 0.5 h in [1] is 3.1%. In [2], the metabolised at 0.5 h was found to be 16.4%. In addition, the MIC in the series with Staph. aureus Oxford [5] is 0.25 µg/mL (≈ 0.551 µM).
For `CCOC(=O)OC(C)OC(=O)[C@@H]1N2C(=O)[C@@H](NC(=O)[C@H](N)c3cccc(F)c3)[C@H]2SC1(C)C` (stereo partly drawn) [Example 23, 1'-Ethyloxycarbonyloxyethyl 6-(D-α-amino-m-fluorophenylacetamido)penicillanate], the degraded at 0.5 h in [1] was 2.6%. In addition, the metabolised at 0.5 h in series [2] amounted to 37.7%.
With `CC(=O)OC(C)OC(=O)[C@@H]1N2C(=O)[C@@H](NC(=O)[C@H](N)c3ccc(F)cc3)[C@H]2SC1(C)C` (stereo partly drawn) [Example 24, 1'-Acetoxyethyl 6-(D-α-amino-p-fluorophenylacetamido)penicillanate], the degraded at 0.5 h in series [1] stood at 9%. The metabolised at 0.5 h in [2] was 14.3%. Besides, the MIC in the series with Staph. aureus Oxford [5] was found to be 0.25 µg/mL (≈ 0.551 µM).
The matching figures for `CCOC(=O)OC(C)OC(=O)[C@@H]1N2C(=O)[C@@H](NC(=O)[C@H](N)c3ccc(F)cc3)[C@H]2SC1(C)C` (stereo partly drawn) [Example 25, 1'-Ethyloxycarbonyloxyethyl 6-(D-α-amino-p-fluorophenylacetamido)penicillanate]: 1.4%, 20.2% and 0.25 µg/mL (≈ 0.517 µM).
The like results for `CC(=O)OC(C)OC(=O)[C@@H]1N2C(=O)[C@@H](NC(=O)C(N)c3ccc(Cl)cc3)[C@H]2SC1(C)C` (stereo partly drawn) [Example 26, 1'-Acetoxyetyl 6-(α-amino-p-chlorophenylacetamido)penicillanate] were, in that order, 10.8%, 15.6% and 0.63 µg/mL (≈ 1.34 µM).
The like results for `CC(=O)OC(C)OC(=O)[C@@H]1N2C(=O)[C@@H](NC(=O)[C@H](N)c3ccc(O)cc3)[C@H]2SC1(C)C` (stereo partly drawn) [Example 27, 1'-Acetoxyethyl 6-(D-α-amino-p-hydroxyphenylacetamido)penicillanate] were, in that order, 2.5%, 6.8% and 0.25 µg/mL (≈ 0.554 µM).
Regarding `CCOC(=O)OC(C)OC(=O)[C@@H]1N2C(=O)[C@@H](NC(=O)[C@H](N)c3ccc(O)cc3)[C@H]2SC1(C)C` (stereo partly drawn) [Example 28, 1'-Ethoxycarbonyloxyethyl 6-(D-α-amino-p-hydroxyphenylacetamido)penicillanate], the degraded at 0.5 h in [1] amounted to 5%. Besides, the metabolised at 0.5 h in series [2] came out at 33.1%. For the same compound, in the series on Staph. aureus Oxford [5], the MIC stood at 0.25 µg/mL (≈ 0.519 µM).
The matching figures for `CC(=O)OC(C)OC(=O)[C@@H]1N2C(=O)[C@@H](NC(=O)C(N)c3ccoc3)[C@H]2SC1(C)C` (stereo partly drawn) [Example 29, 1'-Acetoxyethyl 6-(α-amino-3-furylacetamido)penicillanate]: 3.5%, 12.4% and 0.63 µg/mL (≈ 1.48 µM).
